This is an account of results in patent US5646184A, “Preparation for external application to the skin and novel benzoic acid derivatives” (Kao Corporation, priority 1993, dated 1997).

The first experiment has as its system skin tissue containing sebaceous glands (sebum synthesis). In words: Percent sebum synthesis inhibition in cultured hamster auricle skin tissue containing sebaceous glands (radioactive sodium acetate incorporation into lipids; method of Hall et al.). Type of experiment: cell-based. The note with it: Mesocricetus auratus; concentration 8 μM; 3 hours culture; average of 6 animals. The method, then: The following test was conducted to evaluate the sebum synthesis inhibitory action of the benzoic acid derivatives according to the present invention.
Measurement of sebum synthesis was made in accordance with the method of Hall, et al. (cf. Arch. Dermatol. Res., 275:1-7 (1983)). The skin tissue (diameter: 4 mm) containing sebaceous glands, taken from the auricle of a male hamster, was cultured in a Krebes-Ringer's phosphate-buffered solution containing radioactive sodium acetate for 3 hours. The tissue was hydrolyzed and extracted with hexane. The amount of the radioactive labelled lipids in the hexane fraction was measured with a liquid scintillation counter to obtain the amount of the synthesized sebum. The skin tissue obtained from the left auricle of a hamster was tested using a Krebes-Ringer's phosphate-buffered solution, while that obtained from the right one of the same hamster was tested using a Krebes-Ringer's phosphate-buffered solution containing each of the compounds shown in Tables 1 and 2, and a percent synthesis inhibition was obtained according to the following numerical formula.
Percent sebum synthesis inhibition (%) =
100 - (amount of sebum synthesized in the presence of
a test compound)/(amount of sebum synthesized in the
absence of a test compound) × 100
For the compound `CCCCCCOc1ccc(C(=O)O)c(O)c1` [Compound 19, 4-n-hexyloxy-2-hydroxybenzoic acid], the inhibition at 8 µM amounted to 58%.

With `CCCCCCCCOc1ccc(C(=O)O)c(O)c1` [Compound 20, 2-hydroxy-4-n-octyloxybenzoic acid], the inhibition at 8 µM was determined as 26%.

Consider `CCCCCCCCCCOc1ccc(C(=O)O)c(O)c1` [Compound 21, 4-n-decyloxy-2-hydroxybenzoic acid], for which the inhibition at 8 µM stood at 13%.

Take `CCCCC(CC)COc1ccc(O)c(C(=O)O)c1` (centres unmarked) [Compound 22, 5-(2-ethylhexyloxy)-2-hydroxybenzoic acid]: the inhibition at 8 µM was determined as 84%.

Consider `CC(CCOc1ccc(O)c(C(=O)O)c1)CC(C)(C)C` (centres unmarked) [Compound 23, 2-hydroxy-5-(3,5,5-trimethylhexyloxy)benzoic acid], for which the inhibition at 8 µM worked out at 83%.

In the case of `O=C(O)c1cc(OCCC2CCCCC2)ccc1O` [Compound 24, 5-(2-cyclohexylethoxy)-2-hydroxybenzoic acid], the inhibition at 8 µM is 78%.

On to `CCCCCCOc1ccc(O)c(C(=O)O)c1` [Compound 25, 5-n-hexyloxy-2-hydroxybenzoic acid], for which the inhibition at 8 µM was 80%.

Turning to `CCCCC(CC)COc1ccc(C(=O)NCCO)c(O)c1` (centres unmarked) [Compound 27, N-(2-Hydroxyethyl)-4-(2-ethylhexyloxy)-2-hydroxybenzamide], the inhibition at 8 µM came out at 15%.

Regarding `CC(=O)Oc1cc(OCC2CCCCC2)ccc1C(=O)O` [Compound 29, 2-acetoxy-4-cyclohexylmethoxybenzoic acid], the inhibition at 8 µM was determined as 48%.

Staying with this experiment, now noted: Mesocricetus auratus; concentration 10 μM; 3 hours culture; average of 6 animals.
Turning to `CCCCC(CC)COc1ccc(C(=O)O)c(O)c1` (centres unmarked) [Compound 14, 4-(2-ethylhexyloxy)-2-hydroxybenzoic acid], the inhibition at 10 µM was 60%.

Take `CC(CCOc1ccc(C(=O)O)c(O)c1)CC(C)(C)C` (centres unmarked) [Compound 15, 2-hydroxy-4-(3,5,5-trimethylhexyloxy)benzoic acid]: the inhibition at 10 µM was 66%.

Regarding `O=C(O)c1ccc(OCC2CCCCC2)cc1O` [Compound 16, 4-cyclohexylmethoxy-2-hydroxybenzoic acid], the inhibition at 10 µM was determined as 44%.

With `O=C(O)c1ccc(OCCC2CCCCC2)cc1O` [Compound 17, 4-(2-cyclohexylethoxy)-2-hydroxybenzoic acid], the inhibition at 10 µM is 57%.

For `CC(C)=CCCC(C)CCOc1ccc(C(=O)O)c(O)c1` (centres unmarked) [Compound 18, 4-(3,7-dimethyl-6-octenyloxy)-2-hydroxybenzoic acid], the inhibition at 10 µM worked out at 45%.

With `CC(C)=CCC/C(C)=C/COc1ccc(C(=O)O)c(O)c1` [Compound 39, 4-{(2E)-3,7-dimethylocta-2,6-dienyloxy}-2-hydroxybenzoic acid], the inhibition at 10 µM worked out at 52%.

Regarding `CC(C)=CCC/C(C)=C/COc1ccc(O)c(C(=O)O)c1` [Compound 40, 5-{(2E)-3,7-dimethylocta-2,6-dienyloxy}-2-hydroxybenzoic acid], the inhibition at 10 µM turned out to be 72%.

On to `CC(C)=CCC/C(C)=C/COc1ccc(C(=O)NCCO)c(O)c1` [Compound 46, N-(2-hydroxyethyl)-4-{(2E)-3,7-dimethylocta-2,6-dienyloxy}-2-hydroxybenzamide], for which the inhibition at 10 µM was 28%.

Still in this experiment, the particulars now being: Mesocricetus auratus; concentration 100 μM; 3 hours culture; average of 6 animals.
On to `CCCCC(CC)COc1ccc(C(=O)OC)c(O)c1` (centres unmarked) [Compound 1, methyl 4-(2-ethylhexyloxy)-2-hydroxybenzoate], for which the inhibition at 100 µM was 32%.

On to `CC(C)=CCC/C(C)=C/COc1ccc(C(=O)O)c(O)c1` [Compound 39, 4-{(2E)-3,7-dimethylocta-2,6-dienyloxy}-2-hydroxybenzoic acid], for which the inhibition at 100 µM is 93%.

`CC(C)=CCC/C(C)=C/COc1cccc(C(=O)O)c1O` [Compound 41, 3-{(2E)-3,7-dimethylocta-2,6-dienyloxy}-2-hydroxybenzoic acid]: the inhibition at 100 µM is 91%.

For `CC(C)=CCC/C(C)=C/COc1cc(O)cc(C(=O)O)c1` [Compound 42, 3-{(2E)-3,7-dimethylocta-2,6-dienyloxy}-5-hydroxybenzoic acid], the inhibition at 100 µM was 70%.

For `CC(C)=CCC/C(C)=C/CC/C(C)=C/COc1ccc(C(=O)O)c(O)c1` [Compound 43, 2-hydroxy-4-{(2E,6E)-3,7,11-trimethyl-2,6,10-dodecatrienyloxy}benzoic acid], the inhibition at 100 µM turned out to be 47%.

Take `CC(=O)Oc1cc(OC/C=C(\C)CCC=C(C)C)ccc1C(=O)O` [Compound 45, 2-acetoxy-4-{(2E)-3,7-dimethylocta-2,6-dienyloxy}benzoic acid]: the inhibition at 100 µM came out at 47%.
